Nine molecules from ChEMBL document CHEMBL1136202, “Imidazo[1,2-a]pyridines: a potent and selective class of cyclin-dependent kinase inhibitors identified through structure-based hybridisation” (Bioorg Med Chem Lett, 2003) can be followed below.

For test [1], the target named is Cyclin-dependent kinase 2 (Homo sapiens, UniProt P24941). The test is described as follows: Inhibition of Cyclin-dependent kinase 2.
For test [2], the target named is Cyclin-dependent kinase 4 (Homo sapiens, UniProt P11802). The test is described as follows: Inhibition of Cyclin-dependent kinase 4.
Cyclin-dependent kinase 4, sequence (P11802 whole entry): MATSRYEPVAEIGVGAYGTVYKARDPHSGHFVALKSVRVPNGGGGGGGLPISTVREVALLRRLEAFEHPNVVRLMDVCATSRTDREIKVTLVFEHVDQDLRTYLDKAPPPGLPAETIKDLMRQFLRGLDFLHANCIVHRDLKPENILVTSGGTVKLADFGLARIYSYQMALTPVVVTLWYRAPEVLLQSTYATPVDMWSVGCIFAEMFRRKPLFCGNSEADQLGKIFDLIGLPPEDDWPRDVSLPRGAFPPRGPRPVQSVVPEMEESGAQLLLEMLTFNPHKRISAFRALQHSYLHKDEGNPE

One may read the IC50 as the concentration at which inhibition is half-maximal. A high value points to weaker potency in that assay. Turning to `Cc1nc2ccccn2c1-c1ccnc(NC(=O)C(F)(F)F)n1`, the IC50 is 95 µM in test [1] and 40 µM in test [2].
The corresponding values for `Cc1nc2ccccn2c1-c1ccnc(N)n1` are 4 µM and 8 µM.
The corresponding values for `CC(=O)Nc1nccc(-c2c(C)nc3ccccn23)n1` are 2.9 µM and 8.9 µM.
On to `CN(C)CC(O)COc1ccc(Nc2nccc(Nc3ccccc3)n2)cc1` (stereo unspecified), for which the IC50 in test [1] is 32 µM.
As to `Cc1nc2ccccn2c1-c1ccnc(Nc2ccc(S(N)(=O)=O)cc2)n1`, the figures for the IC50 in test [1] and in test [2] were less than 0.003 µM and 2.5 µM, respectively.
Molecule `Cc1nc2ccccn2c1-c1ccnc(Nc2ccc(OCC(O)CN(C)C)cc2)n1` (stereo unspecified) yielded an IC50 in test [2] of 0.15 µM.
Take `Cc1nc2ccccn2c1-c1ccnc(NC(=O)Nc2ccccc2)n1`: the IC50 in test [1] and in test [2] was more than 10 µM throughout.
Turning to `Cc1nc2ccccn2c1-c1ccnc(Nc2ccccc2)n1`, the IC50 in test [1] was 0.036 µM; in test [2] it was 3.6 µM.
The corresponding values for `Cc1ccc(F)c(Nc2ccnc(Nc3ccc(S(N)(=O)=O)cc3)n2)c1` are 0.006 µM and 2.7 µM.
